Results taken from patent publication US20250041231A1, “5-AMINOLEVULINIC ACID FOR THE LOCAL TREATMENT OF INFLAMMATORY BOWEL DISEASE” (Intract Pharma Limited, priority 2019, published 2025).
“Also recorded” adds a separate entry of the source.

Columns and labels:
[1] = Human colon model (faecal slurry): stability of 5-ALA with SFC and formation of PpIX; assay type: in vitro ADME
Experimental: (§1) A human colonic model based on a mixed fecal inoculum was used to mimic the luminal environment of the human large intestine. An anaerobic workstation (Electrotek 500TG™ workstation, Electrotek, West Yorkshire, UK) maintained at 37° C. and 70% relative air humidity was used to set up the model. The fecal material was transferred in the anaerobic workstation and diluted with freshly prepared basal medium to obtain 20% w/w slurry by homogenization. The basal media provides nutrients and growth factors to the microbiota allowing viability for up to 24 hours. The homogenized bacterial media was sieved through an open mesh fabric (SefarNitex™, pore size 350 μm) to remove any nonhomogeneous fibrous material. […]
(§2) For 5-ALA analysis, a 150×4.6-mm Jupiter 5 μm 300 Å (Phenomenex, Torrance, CA) C18 column was used using 70% water (0.1% TFA) and 30% acetonitrile (0.1% TFA) as the mobile phase for elution, at a flow rate of 1 ml/min. The analysis was operated at room temperature and fluorescence detection wavelength was set at 395/480 nm excitation/emission. […]
(§3) For PpIX analysis, a 150×4.6-mm Aeris 3.6 μm 100 Å (Phenomenex, Torrance, CA) C18 column was used using 70% acetonitrile and 30% 10 mM TBA solution (pH 7.5) as the mobile phase at a flow rate of 1 ml/min. The analysis was operated at room temperature and fluorescence detection wavelength was set at 400/630 nm excitation/emission. […]

[2] = Ussing chamber: mouse colon tissue penetration and permeability of 5-ALA with SFC, metabolite formation; assay type: in vitro ADME, C57BL6 mice; details: mouse colon vs human colon, 3 hours
Experimental: (§4) The chambers are made of solid acrylic and supports the tissue membrane in such a way that each side of the membrane is isolated and faces a different chamber representing the luminal (apical) and blood (basal) compartments. The working system consists of a unit to fit a maximum of six vertical chambers, a gas manifold for carbogen purging (95% O2, 5% CO2) and a heater block to maintain the temperature of the chambers at 37° C. during the experiments with the use of a circulating water bath. The chambers are two-piece assemblies held together by a high spring-tension retaining ring to ensure leak-free operation during the experiments.
(§5) The EVOM™ voltohmmeter (World Precision Instruments, Inc., Hertfordshire, UK) and Ag/AgCl electrodes (Harvard Apparatus, Cambridge, UK) were used to measure the trans-epithelial electrical resistance (TEER) of the tissue samples. TEER monitors the presence of functional tight junctions, which are responsible for the barrier function and which limit Paracellular permeation of water and solutes. […]
(§6) For the tissue penetration studies, the freshly excised colon of human subject or C57BL6 mice was collected and transferred to an ice-cold solution of Krebs-Bicarbonate Ringer solution (KBr) of pH 7.4. […] The TEER was continuously monitored during the experiment to confirm the viability and integrity of the tissue.

[3] = tested on: DSS induced colitis mouse model
[4] = Ussing chamber: human colon tissue penetration and permeability of 5-ALA with SFC, metabolite formation; assay type: in vitro ADME
Experimental: as §4, §5, §6

[5] = Mouse colon model (faecal slurry): stability of 5-ALA with SFC and formation of PpIX; assay type: in vitro ADME, C57BL6 mice
Experimental: as §1, with “mouse” for “human”, “model. Three healthy male C57BL6 mice were sacrificed and the fecal contents were collected.” for “model.”, “upto” for “up to”, “hours.” for “hours. The homogenized bacterial media was sieved through an open mesh fabric (SefarNitex™, pore size 350 μm) to remove any nonhomogeneous fibrous material.”
as §2, §3

[6] = intra-colonic vs oral, 10 and 100 mg/kg, day 10
[7] = oral vs intra-colonic dosing, day 10

Permeability of 5-ALA across the tissue [2]: higher | Bilirubin expression in the colon tissue and plasma [3, 7]: no significant difference | Biliverdin expression in the colon tissue and plasma [3, 7]: no significant difference | Stability of 5-ALA in mouse colon fluid ([5]; 6 mg/ml 5-ALA + 1 mg/ml SFC, 10% w/w mouse faecal slurry, up to 24 hrs): completely stable | Conversion of 5-ALA into PpIX in mouse colon fluid ([5]; in the presence of SFC): no conversion
SMILES: NCC(=O)CCC(=O)O [5-ALA, 5-aminolevulinic acid]
Stability of 5-ALA in human colon fluid ([1]; 6 mg/ml 5-ALA + 1 mg/ml SFC, 10% w/w human faecal slurry, up to 24 hrs): completely stable; also recorded: very stable | Conversion of 5-ALA into PpIX in human colon fluid ([1]; in the presence of SFC): no conversion; also recorded: no metabolism | Reduction of expression of IL-1β in the colon tissue and plasma [3, 6]: significantly better than after oral administration | Reduction of expression of IL-6 in the colon tissue and plasma [3, 6]: significantly better than after oral administration | Reduction of expression of TNF-α in the colon tissue and plasma [3, 6]: significantly better than after oral administration | Expression of HO-1 in the colon tissue and plasma ([3]; oral vs intra-colonic dosing): no significant difference | Expression of 5-ALA metabolite PpIX in the plasma ([3]; oral vs intra-colonic dosing, 10 and 100 mg/kg): Significantly enhanced expression of PpIX was observed in the plasma after oral dosing, but not intra-colonic dosing | Reduction in inflammatory cytokines compared with 5-ASA ([3]; vs 5-ASA 50 mg/kg oral and intra-colonic): superior to 5-ASA given both orally and intra-colonic | Tissue conc. of 5-ALA ([4]; human colon vs mouse colon, Ussing chamber, 3 hours): higher in human colon compared to mouse colon | Penetration of 5-ALA into colon tissue ([4]; human colonic tissue in vitro): readily able to penetrate effectively into colon tissue
